Earlier results, collected in US20030021750A1, “Novel functional agents for magnetic resonance imaging” (priority 2001, published 2003).

Conditions: thermodynamic stability of the Gd3+ chelate; background statement

SMILES | stability constant (K) / formation constant, logK
O=C([O-])CN(CCN(CC(=O)[O-])CC(=O)[O-])CCN(CC(=O)[O-])CC(=O)[O-].[Gd+3] [Gd(DTPA)^2−] | 22.4
O=C([O-])CN1CCN(CC(=O)[O-])CCN(CC(=O)[O-])CCN(CC(=O)[O-])CC1.[Gd+3] [Gd-DOTA] | 28.5
